# Assays:
# P2X7 receptor = biological target: T1, P2X7 receptor (Homo sapiens, UniProt Q99572); experiment: P2X7 mediated pore formation (YO-PRO dye uptake, FLIPR); format: cell-based; conditions: THP-1 cells
# T1 construct: endogenous in cells; host or cells: THP-1 cells
# T1 sequence (Q99572 1-595): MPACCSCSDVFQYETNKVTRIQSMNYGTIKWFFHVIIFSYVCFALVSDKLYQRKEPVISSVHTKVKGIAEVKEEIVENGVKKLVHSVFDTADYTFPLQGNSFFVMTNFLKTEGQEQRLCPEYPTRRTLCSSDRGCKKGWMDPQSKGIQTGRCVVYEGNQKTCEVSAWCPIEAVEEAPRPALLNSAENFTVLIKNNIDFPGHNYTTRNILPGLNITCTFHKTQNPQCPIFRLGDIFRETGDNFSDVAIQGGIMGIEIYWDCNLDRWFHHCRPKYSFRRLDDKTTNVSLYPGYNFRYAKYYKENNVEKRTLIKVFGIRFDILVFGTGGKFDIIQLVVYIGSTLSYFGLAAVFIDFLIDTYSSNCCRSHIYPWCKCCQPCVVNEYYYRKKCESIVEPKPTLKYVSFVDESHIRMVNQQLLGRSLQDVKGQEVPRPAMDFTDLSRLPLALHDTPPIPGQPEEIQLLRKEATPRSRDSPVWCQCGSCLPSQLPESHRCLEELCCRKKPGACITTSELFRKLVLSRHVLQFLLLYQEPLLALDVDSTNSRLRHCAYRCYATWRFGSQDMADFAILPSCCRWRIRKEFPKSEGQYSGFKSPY
# Experimental: P2X7 Mediated Pore Formation. Activation of the P2X7 receptor induces nonspecific pore formation and eventually cell lysis (Verhoef et al., The Journal of Immunology, Vol. 170, pages 5728-5738, 2003). Accordingly, the inhibitory activity of the antagonists of the present invention was determined by their capacity to inhibit the agonist-induced pore formation using the fluorescent dye YO-PRO (MW=629) and Fluorescence Imaging Plate Reader (FLIPR, Molecular Devices, Sunnydale, Calif.) in THP-1 cells. […] The YO-PRO iodide dye (1 mM in DMSO) was diluted to a final concentration of 2 μM in PBS (w/o Mg^2+ or Ca^2+) and then placed on the cells immediately prior to the agonist addition. Since the THP-1 cells are a non-adherent cell line, the cells were washed in PBS and loaded with the dye in a conical tube prior to spinning the cells onto poly-lysine-coated black-walled 96-well plates, which were utilized to reduce light scattering. […] The intensity of the fluorescence was captured by the CCD camera every 15 seconds for the first 10 minutes of agonist exposure followed by every 20 seconds for an additional 50 minutes with the data being digitally transferred to an interfaced PC. The exposure setting of the camera was 0.25 sec with an f-stop setting of 2. […]
melting point,EC70 value for agonist activation (P2X7 receptor),Compound
198 to 199 °C,–,"COc1cc(OC)cc(C(=O)NC(NC(=NC#N)Nc2cccnc2OC)C(C)(Cl)Cl)c1 (stereo not shown) [Example 50, N-[2,2-dichloro-1-({(cyanoimino)[(2-methoxy-3-pyridinyl)amino]methyl}amino)propyl]-3,5-dimethoxybenzamide]"
162 to 163 °C,–,"COc1ccc(NC(=NC#N)NC(NC(=O)c2ccc(Cl)cc2)C(C)(Cl)Cl)c(OC)n1 (stereo not shown) [Example 51, 4-chloro-N-[2,2-dichloro-1-({(cyanoimino)[(2,6-dimethoxy-3-pyridinyl)amino]methyl}amino)propyl]benzamide]"
188 to 190 °C,–,"COc1ccc(CC(=O)NC(NC(=NC#N)Nc2cccnc2OC)C(C)(Cl)Cl)cc1OC (stereo not shown) [Example 54, N-[2,2-dichloro-1-({(cyanoimino)[(2-methoxy-3-pyridinyl)amino]methyl}amino)propyl]-2-(3,4-dimethoxyphenyl)acetamide]"
–,50 µM,benzoylbenzoic ATP [BzATP]

# — patent US20050171195A1, “P2X7 antagonists for treating neuropathic pain” (priority 2003, published 2005)
